# Laboratory results taken from ChEMBL document CHEMBL5154698, “Novel PHD2/HDACs hybrid inhibitors protect against cisplatin-induced acute kidney injury” (Eur J Med Chem, 2022).
# Calls of active or inactive are those of the source. The rule behind the calls is not given here.
# Columns and labels:
# [1] = system: Mus musculus; experiment: Nephroprotective activity against cisplatin-induced acute kidney injury in male C57BL/6 mouse assessed as plasma SCr concentration at 10 mg/kg/day, ip; type: functional
# [2] = system: Mus musculus; experiment: Nephroprotective activity against cisplatin-induced acute kidney injury in male C57BL/6 mouse assessed as plasma BUN concentration at 10 mg/kg/day, ip; type: functional
# [3] = system: HK-2; experiment: Antiproliferative activity against human HK-2 cells assessed as decrease in cell viability at 0.78 uM measured after 24 hrs by CCK-8 assay; type: functional
# [4] = biological target: T1, Protein deacetylase HDAC6 (Homo sapiens, UniProt Q9UBN7); experiment: Inhibition of HDAC6 (unknown origin) using trypsin and Ac-peptide as substrates
# T1 sequence (Q9UBN7 whole entry): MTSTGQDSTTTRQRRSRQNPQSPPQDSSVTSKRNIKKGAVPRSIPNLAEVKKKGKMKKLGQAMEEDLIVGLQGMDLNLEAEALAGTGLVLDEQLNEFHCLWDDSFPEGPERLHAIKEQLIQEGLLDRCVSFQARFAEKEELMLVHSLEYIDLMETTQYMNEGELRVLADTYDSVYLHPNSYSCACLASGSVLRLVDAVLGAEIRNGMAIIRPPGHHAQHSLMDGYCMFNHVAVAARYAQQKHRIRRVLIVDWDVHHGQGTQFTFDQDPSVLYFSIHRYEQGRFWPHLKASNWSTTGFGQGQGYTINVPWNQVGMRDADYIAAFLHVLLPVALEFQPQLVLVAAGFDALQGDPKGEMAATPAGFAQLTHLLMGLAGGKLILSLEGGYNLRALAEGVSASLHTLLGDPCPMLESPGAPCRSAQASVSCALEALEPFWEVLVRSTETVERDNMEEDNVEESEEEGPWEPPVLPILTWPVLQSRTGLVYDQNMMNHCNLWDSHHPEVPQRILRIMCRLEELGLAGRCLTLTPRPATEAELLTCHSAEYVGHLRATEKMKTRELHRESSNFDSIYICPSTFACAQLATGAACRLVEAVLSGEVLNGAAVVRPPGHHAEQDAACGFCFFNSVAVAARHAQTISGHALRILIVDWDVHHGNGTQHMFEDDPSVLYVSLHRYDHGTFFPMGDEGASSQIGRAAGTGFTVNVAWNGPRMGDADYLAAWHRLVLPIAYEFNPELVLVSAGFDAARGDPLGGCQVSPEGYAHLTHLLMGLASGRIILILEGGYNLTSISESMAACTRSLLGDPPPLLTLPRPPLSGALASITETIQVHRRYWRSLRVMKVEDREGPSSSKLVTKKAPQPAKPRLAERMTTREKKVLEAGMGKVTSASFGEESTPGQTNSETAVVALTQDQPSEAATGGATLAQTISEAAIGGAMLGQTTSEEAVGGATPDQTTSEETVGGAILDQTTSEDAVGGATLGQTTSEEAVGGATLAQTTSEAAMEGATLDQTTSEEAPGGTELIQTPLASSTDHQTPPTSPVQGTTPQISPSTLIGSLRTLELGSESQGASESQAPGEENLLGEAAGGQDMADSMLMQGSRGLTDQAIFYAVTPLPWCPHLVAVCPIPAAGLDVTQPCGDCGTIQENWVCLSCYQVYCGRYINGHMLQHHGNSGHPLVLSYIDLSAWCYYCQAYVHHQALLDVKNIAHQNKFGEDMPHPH
# [5] = system: A549; experiment: Antiproliferative activity against human A549 cells assessed as decrease in cell viability at 50 uM relative to control; type: functional, cell-based
# [6] = biological target: Egl nine homolog 1 (Homo sapiens, UniProt Q9GZT9); experiment: Inhibition of PHD2 (unknown origin) measured by fluorescence polarization assay
# [7] = system: HK-2; experiment: Antiproliferative activity against human HK-2 cells assessed as decrease in cell viability at 50 uM measured in presence of 10 uM cisplatin after 24 hrs by CCK-8 assay; type: functional
# [8] = system: MCF7; experiment: Induction of apoptosis in human MCF7 cells assessed as apoptotic cell population at 50 uM measured by Annexin V-FITC/propidium iodide staining based flow cytometry assay; type: functional
# [9] = system: A549; experiment: Induction of apoptosis in human A549 cells assessed as apoptotic cell population at 50 uM in presence of 100 uM cisplatin measured by Annexin V-FITC/propidium iodide staining based flow cytometry assay; type: functional
# [10] = system: MCF7; experiment: Antiproliferative activity against human MCF7 cells assessed as decrease in cell viability at 50 uM relative to control; type: functional, cell-based
# [11] = system: Mus musculus; experiment: Nephroprotective activity against cisplatin-induced acute kidney injury in male C57BL/6 mouse assessed as serum EPO level at 10 mg/kg/day, ip; type: functional
# [12] = system: Mus musculus; experiment: Nephroprotective activity against cisplatin-induced acute kidney injury in male C57BL/6 mouse assessed as decrease in expression of NGAL at 10 mg/kg/day, ip; type: functional, organism-based
# [13] = biological target: Histone deacetylase 2 (Homo sapiens, UniProt Q92769)
# [14] = system: A549; experiment: Induction of apoptosis in human A549 cells assessed as apoptotic cell population at 50 uM measured by Annexin V-FITC/propidium iodide staining based flow cytometry assay; type: functional
# [15] = system: MCF7; experiment: Induction of apoptosis in human MCF7 cells assessed as apoptotic cell population at 50 uM in presence of 100 uM cisplatin measured by Annexin V-FITC/propidium iodide staining based flow cytometry assay; type: functional
# [16] = biological target: Histone deacetylase 4 (Homo sapiens, UniProt P56524); experiment: Inhibition of HDAC4 (unknown origin) using trypsin and Ac-peptide as substrates
# [17] = biological target: Histone deacetylase 1 (Homo sapiens, UniProt Q13547); experiment: Inhibition of HDAC1 (unknown origin) using trypsin and Ac-peptide as substrates
# [18] = system: Mus musculus; experiment: Nephroprotective activity against cisplatin-induced acute kidney injury in male C57BL/6 mouse assessed as decrease tubular injury at 10 mg/kg/day, ip; type: functional, organism-based
# [19] = system: A549; experiment: Antiproliferative activity against human A549 cells assessed as decrease in cell viability at 50 uM in presence of 40 uM cisplatin relative to control; type: functional
# [20] = system: MCF7; experiment: Antiproliferative activity against human MCF7 cells assessed as decrease in cell viability at 50 uM in presence of 100 uM cisplatin relative to control; type: functional
# Histone deacetylase 1, sequence (Q13547 whole entry): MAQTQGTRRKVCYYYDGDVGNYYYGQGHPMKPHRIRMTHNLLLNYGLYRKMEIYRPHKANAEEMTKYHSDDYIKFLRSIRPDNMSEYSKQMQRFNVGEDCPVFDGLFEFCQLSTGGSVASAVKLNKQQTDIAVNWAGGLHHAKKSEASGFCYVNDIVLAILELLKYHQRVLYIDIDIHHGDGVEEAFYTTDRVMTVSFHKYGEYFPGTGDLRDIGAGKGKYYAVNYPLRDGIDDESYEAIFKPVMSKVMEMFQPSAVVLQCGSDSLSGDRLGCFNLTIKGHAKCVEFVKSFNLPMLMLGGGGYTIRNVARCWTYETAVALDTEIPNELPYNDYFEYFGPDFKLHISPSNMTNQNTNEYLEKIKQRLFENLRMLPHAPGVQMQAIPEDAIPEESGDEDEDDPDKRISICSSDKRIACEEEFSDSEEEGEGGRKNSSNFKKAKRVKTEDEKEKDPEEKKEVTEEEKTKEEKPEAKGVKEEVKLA
# Histone deacetylase 4, sequence (P56524 whole entry): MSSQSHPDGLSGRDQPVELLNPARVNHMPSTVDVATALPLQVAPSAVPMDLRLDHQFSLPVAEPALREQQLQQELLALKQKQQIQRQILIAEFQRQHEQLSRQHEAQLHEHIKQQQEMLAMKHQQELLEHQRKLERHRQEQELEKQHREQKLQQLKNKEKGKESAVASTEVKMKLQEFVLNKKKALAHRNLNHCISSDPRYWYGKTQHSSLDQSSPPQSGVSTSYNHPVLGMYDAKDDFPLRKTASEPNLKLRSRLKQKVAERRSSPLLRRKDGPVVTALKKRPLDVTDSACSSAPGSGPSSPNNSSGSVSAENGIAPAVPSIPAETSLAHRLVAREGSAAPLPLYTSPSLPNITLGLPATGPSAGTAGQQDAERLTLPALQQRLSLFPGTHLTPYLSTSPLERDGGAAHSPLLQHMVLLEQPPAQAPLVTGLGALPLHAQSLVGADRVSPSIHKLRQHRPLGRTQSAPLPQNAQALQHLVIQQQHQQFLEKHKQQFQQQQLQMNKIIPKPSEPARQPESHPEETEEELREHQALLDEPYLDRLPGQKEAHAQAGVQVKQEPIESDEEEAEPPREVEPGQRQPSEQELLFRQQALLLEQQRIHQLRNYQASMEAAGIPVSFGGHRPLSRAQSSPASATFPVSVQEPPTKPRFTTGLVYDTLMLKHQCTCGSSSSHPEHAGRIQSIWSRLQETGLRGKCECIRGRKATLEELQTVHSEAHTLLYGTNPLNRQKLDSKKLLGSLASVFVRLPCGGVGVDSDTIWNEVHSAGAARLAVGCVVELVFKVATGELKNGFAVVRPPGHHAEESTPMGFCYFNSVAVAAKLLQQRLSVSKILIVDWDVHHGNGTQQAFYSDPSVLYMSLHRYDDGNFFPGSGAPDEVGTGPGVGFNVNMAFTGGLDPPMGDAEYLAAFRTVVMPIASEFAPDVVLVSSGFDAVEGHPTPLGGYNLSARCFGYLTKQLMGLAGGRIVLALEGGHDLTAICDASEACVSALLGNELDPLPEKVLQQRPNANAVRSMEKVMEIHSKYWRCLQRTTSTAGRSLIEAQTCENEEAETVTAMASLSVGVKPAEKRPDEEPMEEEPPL
# Egl nine homolog 1, sequence (Q9GZT9 whole entry): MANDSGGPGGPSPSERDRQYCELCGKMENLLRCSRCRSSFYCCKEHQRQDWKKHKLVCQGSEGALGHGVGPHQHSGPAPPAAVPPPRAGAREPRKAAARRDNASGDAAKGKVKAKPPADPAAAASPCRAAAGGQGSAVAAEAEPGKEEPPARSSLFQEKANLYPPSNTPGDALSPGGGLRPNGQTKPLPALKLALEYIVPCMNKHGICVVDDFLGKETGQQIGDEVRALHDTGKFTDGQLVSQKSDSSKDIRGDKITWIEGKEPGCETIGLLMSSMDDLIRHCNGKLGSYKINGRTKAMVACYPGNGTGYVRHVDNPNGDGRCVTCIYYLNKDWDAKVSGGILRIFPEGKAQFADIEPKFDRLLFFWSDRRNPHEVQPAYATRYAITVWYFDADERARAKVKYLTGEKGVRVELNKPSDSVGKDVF
# Histone deacetylase 2, sequence (Q92769 whole entry): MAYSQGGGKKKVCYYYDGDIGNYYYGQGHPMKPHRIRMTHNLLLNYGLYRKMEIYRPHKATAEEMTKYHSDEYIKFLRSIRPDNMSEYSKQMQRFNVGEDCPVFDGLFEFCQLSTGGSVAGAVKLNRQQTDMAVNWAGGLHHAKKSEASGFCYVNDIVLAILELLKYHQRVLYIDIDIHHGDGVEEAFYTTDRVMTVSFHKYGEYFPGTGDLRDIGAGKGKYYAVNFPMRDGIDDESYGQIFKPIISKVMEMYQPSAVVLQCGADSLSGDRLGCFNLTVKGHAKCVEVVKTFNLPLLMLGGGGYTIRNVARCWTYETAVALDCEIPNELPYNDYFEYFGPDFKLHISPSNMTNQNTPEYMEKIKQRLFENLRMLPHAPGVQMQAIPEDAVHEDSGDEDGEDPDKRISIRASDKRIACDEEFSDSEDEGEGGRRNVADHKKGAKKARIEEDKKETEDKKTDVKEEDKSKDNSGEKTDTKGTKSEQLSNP
IC50 [4] [nM],IC50 [6] [nM],IC50 [13] [nM],IC50 [16] [nM],IC50 [17] [nM],SMILES,Activity [1] [mmol/L],Activity [2] [mmol/L],Activity [3] [%],Activity [5],Activity [7] [%],Activity [8] [%],Activity [9] [%],Activity [10],Activity [11] [mIU/ml],Activity [12],Activity [14] [%],Activity [15] [%],Activity [18],Activity [19] [%],Activity [20] [%]
,,,,,CC(/C=C/C(=O)NO)=C\[C@@H](C)C(=O)c1ccc(N(C)C)cc1 [TRICHOSTATIN],0.129,8.86,70,,,,,,,,,,,,
16,1150,26.6,1170,19.8,O=C(NO)c1cnc(N2CCC(NC(=O)c3cnc(-n4cccn4)nc3O)CC2)nc1,0.0311,10.86,,Active,61.96,19.3,13.2,Active,15.34,Active,4.9,26.6,Active,39.09,36.83
,,,,,Cc1nc(C(=O)NCC(=O)O)c(O)c2ccc(Oc3ccccc3)cc12 [ROXADUSTAT],0.0947,13.91,,,71.12,,,,23.46,,,,,,
